Holding throughout (assay): NCI anticancer screen, dose series, 48 h
In test [1] the test system is CCRF-CEM.
Test [2] deals with IGROV-1.
Test [3] has as its system SN12C.
The subject of test [4] is Malme-3M.
Test [5] relates to RXF 393.
Test [6] relates to SF-295.
Test [7] deals with HCT-116.
The subject of test [8] is 786-0.
In test [9] the test system is UO-31.
Test [10] has as its system NCI-H460.
Test [11] deals with HCT-15.
In test [12] the test system is SR.
Test [13] has as its system HCC 2998.
Test [14] concerns OVCAR-5.
The subject of test [15] is HT-29.
The subject of test [16] is EKVX.
For test [17], the system named is MDA-N.
The test system of test [18] is SNB-19.
Test [19] concerns TK-10.
The subject of test [20] is OVCAR-3.

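Step 1: Grow cells in 96-well plates. Step 2: Expose to compound for 48 hours at 5 concentrations. Step 3: Interpolate endpoints linearly; if unreached, use highest concentration. GI50 is the concentration that inhibits growth by half.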 Activity calls are given as the source filed them. Cut-off read from the data, not from the text of the source: active = GI50 up to about 1.1 µM and inactive = higher. Bounds are passed on as bounds.

As for `CCOC(=O)/C(=C/NC(=S)Nc1c(CC)cccc1C(C)(C)C)C(=O)c1ccccc1`, the GI50 in [1], in test [2], in [3], in [4], in [5] and in test [6] was > 100 µM (inactive) throughout. For the same molecule, the GI50 in test [7] was > 100 µM (inactive); in test [8], > 100 µM (inactive); in test [9], 14.7 µM (inactive); in test [10], 10 µM (inactive); in [11], more than 100 µM; in test [12] it was > 100 µM (inactive). Besides, the GI50 in test [13], in [14], in test [15], in test [16] and in test [17] was > 100 µM (inactive) each time.
As for `O=[N+]([O-])c1ccc(/C=N/CC2CCCN3CCCCC23)cc1` (stereo unspecified), the GI50 in [1] was 40.8 µM (inactive); in [2] it was > 100 µM (inactive); in test [3] it was > 100 µM (inactive); in [4], > 100 µM (inactive); in test [5], 46 µM (inactive); in [18], > 100 µM (inactive). Moreover, the GI50 in test [6] was > 100 µM (inactive); in [19], > 100 µM (inactive); in [7] it was 58.6 µM (inactive); in test [8], 22.8 µM (inactive); in test [9], 34.2 µM (inactive); in test [10], > 100 µM (inactive). Besides, the GI50 in test [11] was 42.7 µM; in test [12], 4.22 µM (inactive); in test [13] it was 28.6 µM (inactive); in test [14], > 100 µM (inactive); in [15] it was 16.9 µM (inactive); in test [16] it was > 100 µM (inactive). Further, the GI50 in test [17] was 34.9 µM (inactive).
For `c1ccc(-c2cc(-c3ccncc3)cc(-c3ccncc3)n2)cc1`, the GI50 in test [1] was > 100 µM (inactive); in test [2] it was > 100 µM (inactive); in [3], > 100 µM (inactive); in test [4] it was > 100 µM (inactive); in test [5] it was > 100 µM (inactive); in [18], 45.2 µM (inactive). For the same molecule, the GI50 in test [6] is 62.2 µM (inactive); in [19] it was > 100 µM (inactive); in test [7] it was > 100 µM (inactive); in [8] it was 69.3 µM (inactive); in [9] it was > 100 µM (inactive); in test [11], more than 100 µM. Also, the GI50 in [12], in test [13], in [20], in test [14], in [15] and in test [16] was > 100 µM (inactive) throughout. Besides, the GI50 in [17] is > 100 µM (inactive).
Regarding `CN(C)/N=N/c1[nH]cnc1C(N)=O` [DACARBAZINE], the GI50 in test [1] is 11.6 µM (inactive); in test [2], 68.5 µM (inactive); in test [3], 78.7 µM (inactive); in test [4], 41.5 µM (inactive); in test [5], 82.8 µM (inactive); in [18], > 99.1 µM (inactive). Further, the GI50 in test [6] was 55.1 µM (inactive); in test [19], 41.6 µM (inactive); in test [7], 38.5 µM (inactive); in test [8], 87.9 µM (inactive); in test [9] it was 32.1 µM (inactive); in [10] it was 49.5 µM (inactive). The GI50 was 94.6 µM in test [11]; 18.9 µM (inactive) in test [12]; 45.8 µM (inactive) in test [13]; 55.3 µM (inactive) in test [20]; 81.5 µM (inactive) in [14]; 87.7 µM (inactive) in [15]. The GI50 in test [17] is > 86.1 µM (inactive).
`CCCCCCCCCN1CCC(=O)C(C(=O)OC)C1` (stereo unspecified): the GI50 in [1] is 10.1 µM (inactive); in [3] it was 16 µM (inactive); in [5], 17.1 µM (inactive); in test [6], 17.3 µM (inactive); in [19], 16.7 µM (inactive); in [7], 13.9 µM (inactive). For the same molecule, the GI50 was 16.9 µM (inactive) in test [8]; 10.3 µM (inactive) in [9]; 17.6 µM (inactive) in test [10]; 13.4 µM in test [11]; 3.86 µM (inactive) in test [12]; 19.5 µM (inactive) in test [13]. Moreover, the GI50 in [20] was 15.5 µM (inactive); in [14] it was 15.3 µM (inactive); in test [15] it was 10.1 µM (inactive); in [16] it was 15.5 µM (inactive); in test [17] it was 16 µM (inactive).
As to `CCOC(=O)C1(C#N)CC1`, the GI50 in test [1] is > 100 µM (inactive); in [2], > 100 µM (inactive); in test [3] it was > 100 µM (inactive); in [4], > 100 µM (inactive); in test [5] it was 7.94 µM (inactive); in test [18], > 100 µM (inactive). Also, the GI50 in test [6], in test [19], in test [7], in test [8], in test [9] and in [10] was > 100 µM (inactive) each time. Further, the GI50 in test [11] was more than 100 µM; in [12] it was > 100 µM (inactive); in test [13], > 100 µM (inactive); in test [14] it was > 100 µM (inactive); in test [15], > 100 µM (inactive); in test [16], > 100 µM (inactive). The GI50 in [17] is > 100 µM (inactive).
With `O=C1Oc2ccccc2C(=O)/C1=C/N1C(=O)/C(=C/c2ccc([N+](=O)[O-])cc2)SC1=S`, the GI50 in test [1] was 34 µM (inactive); in test [2], 32.3 µM (inactive); in test [3], 20.4 µM (inactive); in test [4] it was 36.2 µM (inactive); in test [5] it was 25.7 µM (inactive); in test [18] it was 21.9 µM (inactive). In addition, the GI50 in [6] was 17.7 µM (inactive); in test [7], 19.3 µM (inactive); in [8], 30.5 µM (inactive); in [10], 18.5 µM (inactive); in [11], 19.1 µM; in test [12] it was 31.6 µM (inactive). The GI50 in [13] was 19.1 µM (inactive); in test [20], 2.71 µM (inactive); in [14] it was 34.4 µM (inactive); in test [15], 32.6 µM (inactive); in test [16], 54.1 µM (inactive); in [17], 17.2 µM (inactive).
On to `COC(=O)c1ccccc1C1=C([N+](=O)[O-])C(c2ccccc2)C(C#N)=C(N)O1` (stereo unspecified), for which the GI50 in [1] is 30.1 µM (inactive); in [2], > 100 µM (inactive); in test [3] it was > 100 µM (inactive); in test [5] it was 30.2 µM (inactive); in [18], > 100 µM (inactive); in test [6], > 100 µM (inactive). Moreover, the GI50 in [19] is > 100 µM (inactive); in [7], > 100 µM (inactive); in [8], 35.6 µM (inactive); in test [10] it was > 100 µM (inactive); in test [11], 19.8 µM; in test [12] it was 36.3 µM (inactive). The GI50 in [13] was > 100 µM (inactive); in test [20], 24.7 µM (inactive); in test [14], > 100 µM (inactive); in [15], 96.6 µM (inactive); in [16] it was 10.5 µM (inactive); in test [17], > 100 µM (inactive).

Values taken from ChEMBL document CHEMBL1201862, “PubChem BioAssay data set” (2004).
